Data published in patent publication US20050158721A1, “Tissue rejection” (priority 2002, published 2005).

Legend:
[1] = test system: primary human tubular epithelial cell (HTEC); test: SA β Gal staining at pH6 in primary tubular epithelial cultures as a measure of senescence, with or without H2O2; type: cell-based; conditions: 10 ng/ml tacrolimus (FK); cells challenged with oxidant H2O2 (75 μM); FIG. 3
Procedure: HTEC culture. Primary HTEC cultures were grown at 37° C. 5% CO2 in DMEM/Glutamax-1/+ pyridoxine medium (Life technologies) plus […] ml^−1 Penstrep. Cells were stained for SA β Gal activity as described in Joosten et al 2003.
Building upon the rodent observations, the inventor has established a primary human tubular epithelial cell (HTEC) in vitro system to model and evaluate premature human renal senescence. […] This is shown in FIG. 3, which illustrates SA β Gal staining at pH6 in primary tubular epithelial cultures as a measure of senescence.
Cultures were grown ±100 ng/ml cyclosporin (cyc) or 10 ng/ml tacrolimus (FK) and evaluated with or without oxidising 75 μM H2O2 treatment.
This has profound implications for transplant outcome and current clinical practice.

[2] = patients treated after cadaveric renal transplantation; result not always reproducible; cited from earlier work

C=CC[C@@H]1/C=C(\C)C[C@H](C)C[C@H](OC)[C@H]2O[C@@](O)(C(=O)C(=O)N3CCCC[C@H]3C(=O)O[C@H](/C(C)=C/[C@@H]3CC[C@@H](O)[C@H](OC)C3)[C@H](C)[C@@H](O)CC1=O)[C@H](C)C[C@@H]2OC [tacrolimus]
effect on oxidant stress, judged by SA β Gal staining at pH6 [1]: protect against the effects of oxidant stress

superoxide dismutase
1 and 4 year graft survival rate [2]: significantly improved | first acute rejection episodes [2]: reduction
